Reference: PubChem BioAssay (NCI)
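Briefly, cells in 96-well plates were exposed to five compound concentrations for 48 h, and endpoints were estimated by linear interpolation. TGI is the concentration that stops growth completely.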

What was measured:
Assay in all cases: growth of human tumour cells (NCI), 48 h
SF-268 CNS = test system: SF-268 CNS
UO-31 renal = test system: UO-31 renal
HCT-116 colon = test system: HCT-116 colon
MALME-3M melanoma = test system: MALME-3M melanoma
786-0 renal = test system: 786-0 renal
U251 CNS = test system: U251 CNS
A549 NSCLC = test system: A549 NSCLC
RPMI-8226 leukemia = test system: RPMI-8226 leukemia
MDA-N = test system: MDA-N
PC-3 prostate = test system: PC-3 prostate
OVCAR-3 ovarian = test system: OVCAR-3 ovarian

| SMILES | TGI (SF-268 CNS) | TGI (UO-31 renal) | TGI (HCT-116 colon) | TGI (MALME-3M melanoma) | TGI (786-0 renal) | TGI (U251 CNS) | TGI (A549 NSCLC) | TGI (RPMI-8226 leukemia) | TGI (MDA-N) | TGI (PC-3 prostate) | TGI (OVCAR-3 ovarian) |
| --- | --- | --- | --- | --- | --- | --- | --- | --- | --- | --- | --- |
| COc1cc(CNC(=S)CCCCCCCCCCC(C)C)ccc1O | > 100 µM | 95.7 µM | > 100 µM | > 100 µM | > 100 µM | > 100 µM | > 100 µM | > 100 µM | – | – | – |
| CCOC(=O)CCC(NC(=O)OCc1ccccc1)C(=O)NC(CCC(=O)OCC)C(=O)NC(CCC(=O)OCC)C(=O)NNC(=O)OC(C)(C)C (stereo unspecified) | – | > 100 µM | > 100 µM | > 100 µM | > 100 µM | > 100 µM | > 100 µM | > 100 µM | > 100 µM | > 100 µM | – |
| CC(C)(Cc1ccccc1)N1C(=O)N1C(C)(C)Cc1ccccc1 | > 100 µM | > 100 µM | > 100 µM | 98.4 µM | 56.4 µM | > 100 µM | 77.7 µM | 38.5 µM | > 100 µM | > 100 µM | > 100 µM |
| Cc1nc2cccc(F)c2c(=O)n1-c1nnc(C(F)(F)F)s1 | > 10 µM | > 10 µM | > 10 µM | – | > 10 µM | > 10 µM | > 10 µM | > 10 µM | > 10 µM | > 10 µM | > 10 µM |
| CCN(CC)/[N+]([O-])=N/O | > 100 µM | > 100 µM | > 100 µM | – | – | – | > 100 µM | – | – | – | > 100 µM |
| CCN(CCCl)c1cccc(NC(=O)c2ccc(C(=O)Nc3cccc(CN(C)C)c3)cc2)c1 | 4.87 µM | 1.81 µM | 12.4 µM | 0.166 µM | – | 4.08 µM | 12.2 µM | 27 µM | 0.286 µM | 1.02 µM | – |
| CC(C#N)N(CCc1ccccc1)C(=O)c1ccccc1 (stereo unspecified) | > 100 µM | > 100 µM | > 100 µM | > 100 µM | > 100 µM | > 100 µM | > 100 µM | > 100 µM | > 100 µM | > 100 µM | > 100 µM |
| NNC(=O)Cn1ccnn1 | > 100 µM | – | – | > 100 µM | > 100 µM | > 100 µM | > 100 µM | > 100 µM | – | > 100 µM | – |
| COC(=O)c1cc(C)ccc1C1CN=NC12Cc1c(C)cc(C)cc1C2=O (stereo unspecified) | 98.9 µM | > 100 µM | 28.6 µM | 60.6 µM | > 100 µM | > 100 µM | > 100 µM | – | 42 µM | > 100 µM | 75.5 µM |
| CCN(CC)C1Oc2cc3c(cc2C(c2cc(OC)c(OC)c(OC)c2)C1C)OCO3 (stereo unspecified) | > 58.2 µM | > 46.7 µM | 13.4 µM | > 64 µM | > 40.6 µM | 6.89 µM | > 46.8 µM | 20.2 µM | 0.456 µM | > 57.4 µM | 5.79 µM |
| COc1cccc(NC(=O)CC(=O)N2N=C(C)C(N=Nc3ccc(C(=O)O)cc3)C2=O)c1 (stereo unspecified) | > 100 µM | > 100 µM | > 100 µM | > 100 µM | > 100 µM | – | > 100 µM | > 100 µM | > 100 µM | > 100 µM | > 100 µM |
